# Paper PMC4051656, “Cyanuric Acid Hydrolase from Azorhizobium caulinodans ORS 571: Crystal Structure and Insights into a New Class of Ser-Lys Dyad Proteins” (PLoS ONE, 2014)
# Target: T1, CAH (cyanuric acid hydrolase from Azorhizobium caulinodans ORS 571) (Azorhizobium caulinodans, UniProt A8IKD2)
# T1 construct: gene AZC_3892; heterologously expressed and purified; selenomethionine-substituted for the crystal; domains A 1-99, B 108-242, C 249-355; homotetramer
# T1 sequence (A8IKD2 1-356): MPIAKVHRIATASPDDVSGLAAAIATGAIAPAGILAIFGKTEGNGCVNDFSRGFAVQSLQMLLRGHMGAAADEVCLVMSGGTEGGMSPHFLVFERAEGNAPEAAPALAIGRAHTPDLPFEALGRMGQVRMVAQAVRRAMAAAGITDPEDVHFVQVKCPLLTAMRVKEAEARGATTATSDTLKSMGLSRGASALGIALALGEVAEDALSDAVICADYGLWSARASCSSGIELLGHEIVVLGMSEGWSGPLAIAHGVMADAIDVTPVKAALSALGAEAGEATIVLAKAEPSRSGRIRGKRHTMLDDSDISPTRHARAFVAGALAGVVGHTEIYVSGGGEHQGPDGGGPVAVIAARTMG
# Assay: X-ray crystal structure of complex (SAD, […] Å)
# Type: binding
# Conditions: selenomethionine protein; Tris-HCl pH 7.0-7.5, magnesium sulfate, 20 °C; active site in both subunits; second site on surface of one subunit at lower occupancy
compound,measurement,value
O=C1CC(=O)NC(=O)N1 [barbituric acid],"X-ray crystal structure of complex (SAD, 2.7 Å)","a molecule of the highly analogous substrate analog, barbituric acid was found"
